In US6933290B2, “2-{N-(2-amino-3-(heteroaryl or aryl)propionyl)-aminoacyl}-amino}-alkylboronic acid derivatives” (Novartis AG, priority 2001, dated 2005):
Several values for one entry are separate records, joined by “and”; a condition that tells them apart may be missing. Identical values can stand only once.

biological target: T1, chymotrypsin-like activity of the 20S proteasome (Homo sapiens, UniProt P20618+P28074); assay: Inhibition of the chymotrypsin-like activity of the 20S proteasome (Suc-LLVY-AMC hydrolysis); type: biochemical; settings: purified human placenta 20S proteasome, Suc-LLVY-AMC substrate, read-out: IC50 [μM] (results of one or two experiments)
T1 construct: purified human placenta 20S proteasome; tissue Diabetes Forschungsinstitut, Düsseldorf, Germany; host or cells: human placenta
Description: It is based on the hydrolysis of the fluorogenic peptide Suc-LLVY-AMC (Succinyl-leucine-leucine-vatine-tyrosine-7-amino-4-methyl-coumarin), which is cleaved exclusively at the Y-AMC bond by the 20S proteasome. Hydrolysis of this peptide is accompanied by an increase in fluorescence intensity (λex (excitation wavelength): 355 nm; μem (emission wavelength): 460 nm) due to release of the […] that accompanies diffusion apart of the hydrolysis product Suc-LLVY.
2 μl of a 1 mM solution of a test compound in DMSO (dimethylsulfoxide, 20 μM final concentration in the well) are preincubated for 60 min at room temperature in black 96-well microtiter plates together with a mixture of 1 μl purified human placenta 20S proteasome (Diabetes Forschungsinstitut, DÜsseldorf, Germany; about 100 ng proteasome, depending on the proteasome preparation) and 47 μl buffer-Ca (5 mM CaCl2, 20 mM Tris/HCl (Tris-(hydroxymethyl)-amino-methane hydrochloride) pH 8.0). 3 μl of a 2.67 mM solution of Suc-LLVY-AMC (Bachem, Switzerland) in DMSO (80 μM final concentration in the well) and 47 μl buffer-Ca are mixed and added. The resulting mixture is incubated for 3-24 h at 37° C. If desired, proteolysis of the substrate can be stopped by addition of 50 μl stop solution (100 mM monochloroacetic acid, 130 mM NaOH, 100 mM acetic acid, pH=4.3). The fluorescence is monitored with a FLUOROSKAN ASCENT™ microtiter plate reader.
For each measurement series two control experiments are carried out: • 1.) 0% value: 2 μl DMSO are used in the above described assay instead of 2 μl of a 1 mM solution of a test compound in DMSO and 48 μl buffer-Ca instead of a mixture of 47 μl buffer-Ca and 1 μl purified proteasome. • 2.) 100% value: in the above described assay 2 μl DMSO are used instead of 2 μl of a 1 mM solution of the test compound in DMSO. Calculation [formula]
The IC50 value is defined as that concentration of a compound at which the remaining activity is 50% compared to the […].

`COc1cc(C[C@H](Nc2cccc(-c3ccccc3)c2)C(=O)N[C@H](C(=O)N[C@@H](CC(C)C)B(O)O)C(C)C)cc(OC)c1OC` [Example 2, (R)-1-{(S)-2-[(S)-2-(Biphenyl-3-ylamino)-3-(3,4,5-trimethoxy-phenyl)-propionylamino]-3-methyl-butyrylamino}-3-methyl-butylboronic acid] was tested, and the IC50 was 0.0028 µM and 0.0021 µM.
For `COc1ccc(C[C@H](NC(=O)CCc2ccccc2)C(=O)N[C@H](C(=O)N[C@@H](CC(C)C)B2O[C@@H]3C[C@@H]4C[C@@H](C4(C)C)[C@]3(C)O2)C(C)C)c(OC)c1OC` [Example 5, (S)-3-Methyl-N-[(R)-3-methyl-1-((1S,2S,6R,8S)-2,9,9-trimethyl-3,5-dioxa-4-bora-tricyclo[6.1.1.0^2,6]dec-4-yl)-butyl]-2-[(S)-2-(3-phenyl-propionyl-amino)-3-(2,3,4-trimethoxyphenyl)-propionylamino]-butyramide], the IC50 was 0.0013 µM and 0.0006 µM.
For `COc1ccc(C[C@H](Nc2cccc(-c3ccccc3)c2)C(=O)N[C@H](C(=O)N[C@@H](CC(C)C)B2O[C@@H]3C[C@@H]4C[C@@H](C4(C)C)[C@]3(C)O2)C(C)C)cc1OC` [Example 9, (S)-2-[(S)-2-(Biphenyl-3-ylamino)-3-(3,4-dimethoxy-phenyl)-propionylamino]-3-methyl-N-[(R)-3-methyl-1-((1S,2S,6R,8S)-2,9,9-trimethyl-3,5-dioxa-4-bora-tricyclo[6.1.1.0^2,6]dec-4-yl)-butyl]-butyramide], the IC50 was 0.0017 µM and 0.0022 µM.
For `COc1ccc(C[C@H](NC(=O)Cc2cccc(Oc3ccccc3)c2)C(=O)N[C@H](C(=O)N[C@@H](CC(C)C)B2O[C@@H]3C[C@@H]4C[C@@H](C4(C)C)[C@]3(C)O2)C(C)C)c(OC)c1OC` [Example 3, (S)-3-Methyl-N-[(R)-3-methyl-1-((1S,2S,6R,8S)-2,9,9-trimethyl-3,5-dioxa-4-bora-tricyclo[6.1.1.0^2,6]dec-4-yl)-butyl]-2-[(S)-2-[2-(3-phenoxy-phenyl)-acetylamino]-3-(2,3,4-trimethoxy-phenyl)-propionylamino]-butyramide], the IC50 was 0.0017 µM and 0.0014 µM.
For `COc1ccc(C[C@H](NC(=O)CCc2ccccc2)C(=O)N[C@H](C(=O)N[C@@H](CC(C)C)B(O)O)C(C)C)c(OC)c1OC` [Example 6, (R)-3-Methyl-1-{(S)-3-methyl-2-[(S)-2-(3-phenyl-propionylamino)-3-(2,3,4-trimethoxy-phenyl)-propionylamino]-butyrylamino}-butylboronic acid], the IC50 was 0.0018 µM and 0.0019 µM.

Compared with `CC(C)C[C@H](NC(=O)[C@@H](NC(=O)[C@H](Cc1ccc(OCc2ccccc2)cc1)NC(=O)Cc1cccc(OCc2ccccc2)c1)C(C)C)B1O[C@@H]2C[C@@H]3C[C@@H](C3(C)C)[C@]2(C)O1` [Example 29, (S)-2-{(S)-3-(4-Benzyloxy-phenyl)-2-[2-(3-benzyloxy-phenyl)-acetylamino]-propionylamino}-3-methyl-N-[(R)-3-methyl-1-((1S,2S,6R,8S)-2,9,9-trimethyl-3,5-dioxa-4-bora-tricyclo[6.1.1.0^2,6]dec-4-yl)-butyl]-butyramide], “(R)-1-{(S)-2-[(S)-2-(Biphenyl-3-ylamino)-3-(3,4,5-trimethoxy-phenyl)-propionylamino]-4-methyl-pentanoylamino}-3-methyl-butylboronic acid [Example 34]” is 3.1-fold lower in IC50: 0.004 µM for the first, 0.0013 µM for the second. The second is the more potent here.

Going from `CC(C)C[C@H](NC(=O)[C@@H](NC(=O)[C@H](Cc1ccc(OCc2ccccc2)cc1)Nc1cccc(-c2ccccc2)c1)C(C)C)B1O[C@@H]2C[C@@H]3C[C@@H](C3(C)C)[C@]2(C)O1` [Example 17, (S)-2-[(S)-3-(4-Benzyloxy-phenyl)-2-(biphenyl-3-ylamino)-propionylamino]-3-methyl-N-[(R)-3-methyl-1-((1S,2S,6R,8S)-2,9-trimethyl-3,5-dioxa-4-bora-tricyclo[6.1.1.0^2,6]dec-4-yl)-butyl]-butyramide] to `COc1cc(C[C@H](Nc2cccc(-c3ccccc3)c2)C(=O)N[C@@H](CC(C)C)C(=O)N[C@@H](CC(C)C)B(O)O)cc(OC)c1OC` [Example 32, (R)-1-{(S)-2-[(S)-2-(Biphenyl-3-ylamino)-3-(3,4,5-trimethoxy-phenyl)-propionylamino]-4-methyl-pentanoylamino}-3-methyl-butylboronic acid], the IC50 falls from 0.0093 µM to 0.0037 µM (2.5-fold). The second is the more potent here.

`COc1ccc(C[C@H](Nc2cccc(-c3ccccc3)c2)C(=O)N[C@@H](C)C(=O)N[C@@H](CC(C)C)B2O[C@@H]3C[C@@H]4C[C@@H](C4(C)C)[C@]3(C)O2)c(OC)c1OC` [Example 39, (S)-2-(Biphenyl-3-ylamino)-N-{(S)-1-[(R)-3-methyl-1-((1S,2S,6R,8S)-2,9,9-trimethyl-3,5-dioxa-4-bora-tricyclo[6.1.1.0^2,6]dec-4-yl)-butylcarbamoyl]-ethyl}-3-(2,3,4-trimethoxy-phenyl)-propionamide] and `COc1ccc(C[C@H](Nc2cccc(-c3ccccc3)c2)C(=O)N[C@@H](CC(C)C)C(=O)N[C@@H](CC(C)C)B(O)O)cc1` [Example 36, (R)-1-{(S)-2-[(S)-2-(Biphenyl-3-ylamino)-3-(4-methoxy-phenyl)-propionylamino]-4-methyl-pentanoylamino}-3-methyl-butylboronic acid] are within 1.5-fold of each other in IC50: 0.0019 µM for the first, 0.0023 µM for the second.

`COc1cc(C[C@H](Nc2cccc(-c3ccccc3)c2)C(=O)N[C@H](C(=O)N[C@@H](Cc2ccccc2)B(O)O)C(C)C)cc(OC)c1OC` [Example 50, (R)-1-{(S)-2-[(S)-2-(Biphenyl-3-ylamino)-3-(3,4,5-trimethoxy-phenyl)-propionylamino]-3-methyl-butyrylamino}-2-phenyl-ethylboronic acid] and `COc1cc(C[C@H](Nc2cccc(-c3ccccn3)c2)C(=O)N[C@H](C(=O)N[C@@H](CC(C)C)B(O)O)C(C)C)cc(OC)c1OC` [Example 14, (R)-3-Methyl-1-[(S)-3-methyl-2-[(S)-2-(3-pyridin-2-yl-phenylamino)-3-(3,4,5-trimethoxy-phenyl)-propionylamino]-butyrylamino)-butylboronic acid] are within 1.5-fold of each other in IC50: 0.0023 µM for the first, 0.0017 µM for the second.

First: COc1ccc(C[C@H](Nc2cccc(-c3ccccc3)c2)C(=O)N[C@@H](C)C(=O)N[C@@H](CC(C)C)B(O)O)cc1 [Example 42, (R)-1-{(S)-2-[(S)-2-(Biphenyl-3-ylamino)-3-(4-methoxy-phenyl)-propionylamino]-propionylamino}-3-methyl-butylboronic acid]
Second: COc1ccc(C[C@H](Nc2cccc(-c3ccccc3)c2)C(=O)N[C@@H](C)C(=O)N[C@@H](CC(C)C)B(O)O)cc1OC [Example 44, (R)-1-{(S)-2-[(S)-2-(Biphenyl-3-ylamino)-3-(3,4-dimethoxy-phenyl)-propionylamino]-propionylamino}-3-methyl-butylboronic acid]
The IC50 of the first is 1.9-fold higher: 0.0019 µM for the first, 0.001 µM for the second.

`COc1cc(C[C@H](Nc2cccc(-c3ccccc3)c2)C(=O)N[C@@H](C)C(=O)N[C@@H](CC(C)C)B2O[C@@H]3C[C@@H]4C[C@@H](C4(C)C)[C@]3(C)O2)cc(OC)c1OC` [Example 37, (S)-2-(Biphenyl-3-ylamino)-N-{(S)-1-[(R)-3-methyl-1-((1S,2S,6R,8S)-2,9,9-trimethyl-3,5-dioxa-4-bora-tricyclo[6.1.1.0^2,6]dec-4-yl)-butylcarbamoyl]-ethyl}-3-(3,4,5-trimethoxy-phenyl)-propionamide] and `COc1cc(C[C@H](Nc2cccc(-c3ccccc3)c2)C(=O)N[C@@H](C)C(=O)N[C@@H](CC(C)C)B(O)O)cc(OC)c1OC` [Example 38, (R)-1-{(S)-2-[(S)-2-(Biphenyl-3-ylamino)-3-(3,4,5-trimethoxy-phenyl)-propionylamino]-propionylamino}-3-methyl-butylboronic acid] are within 1.5-fold of each other in IC50: 0.0013 µM for the first, 0.0017 µM for the second.

First: COc1ccc(C[C@H](NC(=O)Cc2cccc(Oc3ccccc3)c2)C(=O)N[C@H](C(=O)N[C@@H](CC(C)C)B(O)O)C(C)C)cc1OC [Example 26, (R)-1-((S)-2-{(S)-3-(3,4-Dimethoxy-phenyl)-2-[2-(3-phenoxy-phenyl)-acetylamino]-propionylamino}-3-methyl-butyrylamino)-3-methyl-butylboronic acid]
Second: COc1ccc(C[C@H](Nc2cccc(-c3ccccc3)c2)C(=O)N[C@@H](C)C(=O)N[C@@H](CC(C)C)B2O[C@@H]3C[C@@H]4C[C@@H](C4(C)C)[C@]3(C)O2)cc1OC [Example 43, (S)-2-(Biphenyl-3-ylamino)-3-(3,4-dimethoxy-phenyl)-N-{(S)-1-[(R)3-methyl-1-((1S,2S,6R,8S)-2,9,9-trimethyl-3,5-dioxa-4-bora-tricyclo[6.1.1.0^2,6]dec-4-yl)-butylcarbamoyl]-ethyl}-propionamide]
The IC50 of the first is 1.8-fold lower: 0.001 µM for the first, 0.0018 µM for the second.
